Experimental data from patent US20230123889A1, “METHOD FOR DEGRADING BENZO(A)PYRENE WITH A HALOPHILIC BACTERIUM STRAIN OF STAPHYLOCOCCUS HAEMOLITICUS” (KING FAHD UNIVERSITY OF PETROLEUM AND MINERALS, priority 2021, published 2023).
Marks after values point to notes of the source that are not given here.

Legend:
Format in all cases: cell-based
[1] = tested on: Staphylococcus haemoliticus 10SBZ1A strain; assay: Bacterial growth assessment (doubling time, CFU/ml) in the presence of BZP and various hydrocarbon substrates as carbon source; details: for strain dt in the presence of substrate (FIG. 3): substrate as carbon source; for Doubling time (dt, h): strain growing on BaP
Procedure: Bacterial growth assessment in the presence of BZP and various hydrocarbon molecules: effect of pH and salinity. To initiate these experiments, bacteria were pre-cultured in an LB rich medium, and around 5×10^5 colony forming units (CFU) of these bacteria were added to 50 ml BH medium containing 100 μmol BZP, unless otherwise stated. Non-polar substrates pyrene, phenanthrene, naphthalene and anthracene were dissolved in dimethyl sulfoxide (DMSO) [0.1 g/ml], while the water-soluble substrates SALC and CATC were dissolved directly in BH medium. The aliphatic compounds were directly added to the medium. […] Growth was monitored as a measure of CFU/ml.
Bacterial doubling time (dt) was calculated by fitting growth curves data points into […] equation, where Q is the bacterial CFU ml^−1 at time t, Qo is the initial bacterial count in the culture, and k is the growth rate. The growth rate (k) was then used to compute dt values according to the equation: dt=ln(2)/k (in days). Values were calculated with Microsoft Excel software (Version). All experiments were carried out in duplicate.

[2] = tested on: Staphylococcus haemoliticus 10SBZ1A strain; assay: Quantification of BZP and substrate utilization in bacterial culture (GC-MS); details: control without bacteria
Procedure: Quantification of BZP and substrate utilization. The remaining BZP was quantified in a bacterial culture of 100 ml containing 20 μmol BZP for 18 days, according to the protocol reported by and incorporated by reference to Budiyanto, F, et al. (2017). Characterization of halophilic bacteria capable of efficiently biodegrading the high molecular weight polycyclic aromatic hydrocarbon pyrene. Environmental Engineering Science. June 2018.616-626.
A sample corresponding to one culture flask of 100 ml, was collected every 5 days and subjected to extraction as follows. The samples were sonicated for 30 min and then extracted twice with ethyl acetate (50 ml). The combined organic layers were dehydrated with calcium chloride and then dried under vacuum. Samples were re-dissolved in 500 μl of chloroform prior to analysis by gas chromatography-mass spectrometry (GC-MS). […] Values of quantified BZP were fitted in the exponential decay equation, Qt=Qoe^−kt to obtain the biodegradation rate constant (k); see Lu, J, C Guo, et al. (2014). […]
The mixture was then diluted with 1.0 ml of chloroform prior to its analysis by GC-MS. […] Values of quantified BZP were fitted in the exponential decay equation, Qt=Qoe^−kt to obtain the biodegradation rate constant (k); see Lu et al., International Biodeterioration & Biodegradation 87: 75-80.

[3] = tested on: Staphylococcus haemoliticus 10SBZ1A strain; assay: Bacterial growth assessment (doubling time, CFU/ml) in the presence of BZP and various hydrocarbon substrates as carbon source

c1ccc2cc3ccccc3cc2c1 [anthracene]
strain dt in the presence of substrate (FIG. 3) [1]: 30 to 33 h

OCC(O)CO [glycerol]
strain dt in the presence of substrate (FIG. 3) [1]: around 11 hours

c1cc2ccc3cccc4ccc(c1)c2c34 [pyrene]
strain dt in the presence of substrate (FIG. 3) [1]: similar

c1ccc2c(c1)cc1ccc3cccc4ccc2c1c34 [BZP, benzo(a)pyrene]
growth ([1]; 0% NaCl): No growth | doubling time ([1]; 4-200 μmol of BZP as sole source of carbon): 2 to 10 h | growth ([1]; 20% NaCl): No growth | maximum count ([1]; BZP 20 μmol.1^−1): > 10^9 CFU ml^−1 | time at which the maximum growth was achieved ([1]; BZP 400 μmol.1^−1): 15 days | dt values ([1]; BZP 1 to 100 μmol.1^1): 15 to 20 h | maximum count ([1]; BZP 5 to 20 μmol.1^−1): 10^7-10^8 CFU/ml | time to reach maximum growth ([1]; BZP 5 to 20 μmol.1^−1): 6 to 8 days | dt values relative to those at 1 to 100 μmol.1^1 ([1]; BZP 200 and 400 μmol.1^−1): almost doubled | Doubling time (dt, h) ([1]; Salinity 5% NaCl): 44 ± 7 h | Doubling time (dt, h) ([1]; Salinity 5% NaCl, listed as benzo(a)pyrene): 46.8 ± 7.4 h | Doubling time (dt, h) ([1]; Salinity 10% NaCl): 21 ± 1 h | Doubling time (dt, h) ([1]; Salinity 10% NaCl, listed as benzo(a)pyrene): 21.5 ± 1.0 h | Doubling time (dt, h) ([1]; Salinity 15% NaCl): 156 ± 73 h | Doubling time (dt, h) ([1]; Salinity 15% NaCl, listed as benzo(a)pyrene): 156 ± 74 h | Doubling time (dt, h) ([1]; Temperature 35° C.): 28.5 ± 2.4^b h | Doubling time (dt, h) ([1]; Temperature 37° C.): 21.5 ± 1.0^b h | Doubling time (dt, h) ([1]; Temperature 40° C.): 24.5 ± 1.0 h | growth at other pH values ([1]; pH 5, 6, 8 and 9): slow | dt values ([1]; pH 7): 21.49±0.98 | Doubling time (dt, h) ([1]; pH 7): 21.5 ± 1.0 h | strain dt in the presence of substrate (FIG. 3) [1]: around 42 h | abiotic degradation [2]: Around 20% | Doubling time (dt, h) ([3]; Temperature 37° C., strain growing on BaP): 21+1 h | range of dt ([3]; temperatures 35, 37, 40° C.): 21 to 29 h
